# Measured values as given in US20200009118A1, “COMPOSITIONS AND METHODS FOR THE TREATMENTOF NEURODEGENERATIVE AND OTHER DISEASES” (Glialogix, Inc., priority 2017, published 2020).
# B1: IL-4: anti-inflammatory cytokine, tested as a control (protein, UniProt P05112 25-153, looked up)
# Interleukin-4: HKCDITLQEIIKTLNSLTEQKTLCTELTVTDIFAASKNTTEKETFCRAATVLRQFYSHHEKDTRCLGATAQQFHRHKQLIRFLKRLDRNLWGLAGLNSCPVKEANQSTLENFLERLKTIMREKYSKCSS
# Assays:
# [1] = for Cmax GB: pH 2; for AUC / Cmax IB: pH 5.5
# [2] = test system: xCT mRNA in primary rat astrocyte cells; assay: qPCR of xCT mRNA in primary astrocytes; format: cell-based
# Protocol: (§1) Primary rat astrocyte cells were purchased from All Cells (Catalog #RCTX-001F, Alameda, Calif.), thawed and resuspended in 13.4 ml of DMEM media (Catalog #12-614F, Lonza, Allendale, N.J.) supplemented with 15% v/v FBS (Catalog #F4135, Sigma-Aldrich, St. Louis, Mo.) and 560 μL aliquoted into wells in a 24-well plate. Cells were incubated at 37° C. with 5% CO2. For each qPCR experiment, 2-3 wells (approximately 42,000-63,000 cells) were transferred to a new 24-well plate with fresh astrocyte media, composed of 50% v/v DMEM, 50% v/v Neurobasal media (Catalog #12348-017), Life Technologies, supplemented with 2 mM glutamine, 300 μM L-cystine. Following 24 hours, cells were then mixed and aliquoted into 24 well plates at approximately 10,000 cells per well in the same media. Compounds to be tested were then added at the indicated concentrations and cells harvested 18 hours later by washing once with PBS (Catalog #P5493, Sigma-Aldrich) and then treated with 300 μl of StemProAccutase cell dissociation reagent (Catalog #A11105-01, Life Technologies) and incubated for 5-10 minutes at 37° C. PBS (300 μl) was added and the cells spun down in a microfuge for 5 minutes at 2,000×g at 4° C. The supernatant was removed and mRNA was isolated from the cells by using the Purelink microscale RNA extraction kit (Catalog #12183016, Life Technologies) according to the manufacturer's instructions. The mRNA resuspended in 12-22 μl of RNase-free water. cDNA was prepared by use of the Superscript VILO kit (Catalog #11755050, Life Technologies) according to the manufacturer's instructions. The cDNA was eluted in a final volume of 20 μl RNase-free water in and 4 μl was used for each qPCR reaction. qPCR reactions and primers were as described in Example 11.
# (§2) To determine if tunicamycin increased levels of xCT mRNA, Tunicamycin (5 ng/ml) was added to the primary astrocyte cell cultures in astrocyte media. xCT gene expression was determined by qPCR after 18 hours of exposure to tunicamycin.
# (§3) The Cycle threshold is abbreviated Ct. The change in Ct equals [Ct (minus test agent)−Ct (plus test agent)]. Changes in Ct of the test genes xCT and Lcn-2 are normalized by subtracting the change in Ct of the control gene, either gamma-actin or Hypoxanthine-guanine phosphoribosyl transferase (HPRT). Ct values are converted to absolute values by the formula: absolute value=2^^(normalized change in Ct). Absolute values are converted to percent change by multiplying the absolute value by 100.
# (§4) Using the methods described in Example 11, various agents known to cause activation of neuroinflammatory cells and/or cause or reflect stress and damage to neurons, axons and/or oligodendrocytes were tested for causing an increase in xCT levels in primary rat astrocytes.
# [3] = test system: Lcn-2 mRNA in primary rat astrocyte cells; assay: qPCR of Lcn-2 mRNA in primary astrocytes; format: cell-based; conditions: astrocyte media
# Protocol: as §1, §2, §3, §4
# [4] = test system: xCT mRNA in primary rat microglial cells; assay: qPCR of xCT mRNA in primary microglia; format: cell-based; conditions: complete media, control gene gamma-actin
# Protocol: Following 24 hours, cells were then mixed and aliquoted in to 96 wells at 7,000-20,000 cells per well in fresh media, either complete media (microglia) or minimal media (100 mL Neurobasal Media (#12348-017, Life Tech) supplemented with 1 mL N2 supplement (#17502-048, Life Tech) and 0.5 mM GlutaMax (#35050-061, Life Tech). Compounds to be tested were then added at the indicated concentrations and cells harvested 18 hours later by centrifugation at 2000×g, 5 minutes at 4° C. mRNA was isolated from the cells by use of the Purelink microscale RNA extraction kit (Catalog #12183016, Life Technologies) kit and the mRNA resuspended in 12-22 μl of RNase-free water according to the manufacturer's instructions. cDNA was prepared by use of the Superscript VILO kit (Catalog #11755050, Life Technologies) according to the manufacturer's instructions. The cDNA was eluted in a final volume of 20 μl RNase-free water and 4 μl was used for each qPCR reaction. For the real-time qPCR reactions, primers and reagents were supplied by Life Technologies and used according to the manufacturer's instructions. The detection molecule was the TaqMan probe with FAM dye label on 5′ end that binds to non-labeled primer pairs. The qPCR machine was a model 7500 Fast Real Time machine from ABI and used according to the manufacturer's instructions. 4 μl of the cDNA reaction was used for each qPCR reactions in a final volume of 20 μl. […] mRNA levels were quantitated by measuring the Cycle threshold (Ct) for each qPCR reaction using the standard algorithm supplied with the ABI 7500 Fast qPCR machine without modification. The Ct is defined as the number of cycles required for the fluorescent signal to cross the threshold (e.g. exceeds background level). […] The Cycle threshold is abbreviated Ct. The change in Ct equals [Ct (minus test agent)−Ct (plus test agent)]. Changes in Ct of the test genes xCT and IL1-beta are normalized by subtracting the change in Ct of the control gene, either gamma-actin or Hypoxanthine-guanine phosphoribosyl transferase (HPRT). […] Using the methods described in Example 11, various agents reported to cause activation of neuroinflammatory cells and/or known to cause or reflect damage to neurons, axons and/or oligodendrocytes were tested for their effect on xCT levels in primary rat microglia.
# [5] = 1 ng/ml, astrocyte media, control gene HPRT
# [6] = 1 ng/ml, astrocyte media, control gene gamma-actin
# [7] = 100 ng/ml, astrocyte media, control gene HPRT
# [8] = 100 ng/ml, astrocyte media, control gene gamma-actin
# [9] = 100 ng/ml, control gene gamma-actin
# [10] = 5 ng/ml, astrocyte media, 18 hours
# [11] = 25 ng/ml, astrocyte media, control gene HPRT
# [12] = 25 ng/ml, astrocyte media, control gene gamma-actin
# [13] = 2 μg/ml, astrocyte media, control gene gamma-actin
# [14] = 20 ug/ml, astrocyte media, control gene gamma-actin
# [15] = 20 ng/ml, astrocyte media, control gene gamma-actin
# [16] = 5 μM, astrocyte media, control gene gamma-actin
# [17] = 50 μM, astrocyte media, control gene gamma-actin
# [18] = 200 ng/ml, astrocyte media, control gene gamma-actin
molecule,measurement,setting,value
"O=C(O)c1cc(/N=N/c2ccc(S(=O)(=O)Nc3ccccn3)cc2)ccc1O [Amorphous sulfasalazine, sulfasalazine]",Cmax GB,[1],154 µg/mL
same,AUC,[1],"30,300 min * ug/mL"
same,Cmax IB,[1],372 µg/mL
IL1-beta: inflammatory cytokine,"xCT, Change in Ct normalized to control gene",[2]; [5],1.536
same,"xCT, Fold change normalized",[2]; [5],2.90
same,"xCT, Percent change normalized",[2]; [5],290%
same,"xCT, Change in Ct normalized to control gene",[2]; [6],1.538
same,"xCT, Fold change normalized",[2]; [6],2.90
same,"xCT, Percent change normalized",[2]; [6],290%
same,"xCT, Change in Ct normalized to control gene",[2]; [7],1.515
same,"xCT, Fold change normalized",[2]; [7],2.86
same,"xCT, Percent change normalized",[2]; [7],286%
same,"xCT, Change in Ct normalized to control gene",[2]; [8],2.560
same,"xCT, Fold change normalized",[2]; [8],5.90
same,"xCT, Percent change normalized",[2]; [8],590%
same,"Lcn-2, Percent change normalized","[3]; 1 ng/ml, control gene HPRT","23,480%"
same,"Lcn-2, Percent change normalized","[3]; 1 ng/ml, control gene gamma-actin","23,522%"
same,"Lcn-2, Percent change normalized","[3]; 100 ng/ml, control gene HPRT","9,185%"
same,"Lcn-2, Percent change normalized",[3]; [9],"18,958%"
IL-17A: inflammatory cytokine,"xCT, Change in Ct normalized to control gene",[2]; [8],0.351
same,"xCT, Fold change normalized",[2]; [8],1.28
same,"xCT, Percent change normalized",[2]; [8],128%
same,"xCT, Change in Ct normalized to control gene",[4]; 10 ng/ml,1.652
same,"xCT, Fold change normalized",[4]; 10 ng/ml,3.1
same,"xCT, Percent change normalized",[4]; 10 ng/ml,314%
same,"Lcn-2, Percent change normalized",[3]; [9],123%
Tunicamycin,"xCT, Absolute change normalized to Gamma-actin",[2]; [10],56.1
same,"xCT, Absolute change normalized to HPRT",[2]; [10],23.1
same,"xCT, Change in Ct (not normalized)",[2]; [10],5.529
same,"xCT, Change in Ct normalized to Gamma actin",[2]; [10],5.809
same,"xCT, Change in Ct normalized to HPRT",[2]; [10],4.530
same,"xCT, Ct with agent",[2]; [10],25.060
same,"xCT, Percent change normalized to Gamma-actin",[2]; [10],"5,606%"
same,"xCT, Percent change normalized to HPRT",[2]; [10],"2,310%"
same,xCT expression increased by,"[2]; 5 ng/ml, regardless of normalization to gamma-actin or HPRT","over 2,000%"
same,"xCT, Change in Ct normalized to control gene",[2]; [11],4.540
same,"xCT, Fold change normalized",[2]; [11],23.26
same,"xCT, Percent change normalized",[2]; [11],"2,326%"
same,"xCT, Change in Ct normalized to control gene",[2]; [12],5.915
same,"xCT, Fold change normalized",[2]; [12],60.34
same,"xCT, Percent change normalized",[2]; [12],"6,034%"
same,"Lcn-2, Absolute change normalized to Gamma-actin","[3]; 5 ng/ml, 18 hours",64.6
same,"Lcn-2, Absolute change normalized to HPRT","[3]; 5 ng/ml, 18 hours",32.3
same,"Lcn-2, Change in Ct (not normalized)","[3]; 5 ng/ml, 18 hours",5.734
same,"Lcn-2, Change in Ct normalized to Gamma actin","[3]; 5 ng/ml, 18 hours",6.014
same,"Lcn-2, Change in Ct normalized to HPRT","[3]; 5 ng/ml, 18 hours",5.015
same,"Lcn-2, Ct with agent","[3]; 5 ng/ml, 18 hours",27.123
same,"Lcn-2, Percent change normalized to Gamma-actin","[3]; 5 ng/ml, 18 hours","6,460%"
same,"Lcn-2, Percent change normalized to HPRT","[3]; 5 ng/ml, 18 hours","3,230%"
same,"Lcn-2, Percent change normalized","[3]; 25 ng/ml, control gene HPRT","2,290%"
same,"Lcn-2, Percent change normalized","[3]; 25 ng/ml, control gene gamma-actin","5,940%"
"A-beta 1-40: A-beta 1-40 peptide, misfolded/aggregated protein","xCT, Change in Ct normalized to control gene",[2]; [13],0.276
same,"xCT, Fold change normalized",[2]; [13],1.21
same,"xCT, Percent change normalized",[2]; [13],121%
same,"xCT, Change in Ct normalized to control gene",[2]; [14],0.951
same,"xCT, Fold change normalized",[2]; [14],1.93
same,"xCT, Percent change normalized",[2]; [14],193%
same,"Lcn-2, Percent change normalized","[3]; 2 μg/ml, control gene gamma-actin",130%
same,"Lcn-2, Percent change normalized","[3]; 20 ug/ml, control gene gamma-actin",140%
IL-6: inflammatory cytokine,"xCT, Change in Ct normalized to control gene",[2]; [15],0.366
same,"xCT, Fold change normalized",[2]; [15],1.29
same,"xCT, Percent change normalized",[2]; [15],129%
same,"xCT, Change in Ct normalized to control gene",[2]; [8],0.380
same,"xCT, Fold change normalized",[2]; [8],1.30
same,"xCT, Percent change normalized",[2]; [8],130%
same,"Lcn-2, Percent change normalized","[3]; 20 ng/ml, control gene gamma-actin",146%
same,"Lcn-2, Percent change normalized",[3]; [9],130%
"OO [H2O2, Hydrogen Peroxide]","xCT, Change in Ct normalized to control gene",[2]; [16],2.484
same,"xCT, Fold change normalized",[2]; [16],5.59
same,"xCT, Percent change normalized",[2]; [16],559%
same,"xCT, Change in Ct normalized to control gene",[2]; [17],2.588
same,"xCT, Fold change normalized",[2]; [17],6.01
same,"xCT, Percent change normalized",[2]; [17],601%
same,"Lcn-2, Percent change normalized","[3]; 5 μM, control gene gamma-actin",15%
same,"Lcn-2, Percent change normalized","[3]; 50 μM, control gene gamma-actin",19%
Pam2CSK4,"xCT, Change in Ct normalized to control gene",[2]; [18],0.65
same,"xCT, Fold change normalized",[2]; [18],1.57
same,"xCT, Percent change normalized",[2]; [18],157%
same,"Lcn-2, Percent change normalized","[3]; 200 ng/ml, control gene gamma-actin","1,602%"
"O=C(O)c1cc(/N=N/c2ccc(S(=O)(=O)Nc3ccccn3)cc2)ccc1O [Crystalline sulfasalazine, sulfasalazine]",Cmax GB,[1],15 µg/mL
same,AUC,[1],"22,200 min * ug/mL"
same,Cmax IB,[1],282 µg/mL
B1,"xCT, Change in Ct normalized to control gene",[2]; [8],−0.097
same,"xCT, Fold change normalized",[2]; [8],0.93
same,"xCT, Percent change normalized",[2]; [8],93%
same,"xCT, Change in Ct normalized to control gene","[4]; 100 ng/ml, 18 hours",−0.147
same,"xCT, Fold (absolute) change normalized","[4]; 100 ng/ml, 18 hours",0.9
same,"xCT, Percent change normalized","[4]; 100 ng/ml, 18 hours",90%
same,"Lcn-2, Percent change normalized",[3]; [9],103%
